# Reference: patent publication US20070128217A1 (priority 2003, published 2007)
# What was measured:
# [1] = tested on: antibodies in sera from SARS patients (sera 1a, 1b, 2, 6, 37, 62, London, SARS-yellow, SARS-green); assay type: binding, human; design: Binding of serum 6 to linear peptides of protein X1 of SARS-CoV Urbani / Binding of serum 37 to linear peptides of protein X1 of SARS-CoV Urbani / Binding of serum 6 to looped/cyclic peptide (PEPSCAN-ELISA) / Binding of serum 37 to looped/cyclic peptide (PEPSCAN-ELISA) / Binding of serum 37 to looped/cyclic peptides of protein X1 of SARS-CoV Urbani / Binding of serum 6 to linear peptides of protein X2 / Binding of serum 37 to linear peptides of protein X2 / Binding of serum 37 to looped/cyclic peptides of protein X2 of SARS-CoV Urbani / Binding of serum 6 to linear peptides of protein M of SARS-CoV Urbani / Binding of serum 37 to linear peptides of protein M of SARS-CoV Urbani / Binding of serum 6 to looped/cyclic peptides of protein M of SARS-CoV Urbani / Binding of serum 37 to looped/cyclic peptides of protein M of SARS-CoV Urbani / Binding of serum 6 to linear peptides of protein X3 of SARS-CoV Urbani / Binding of serum 37 to linear peptides of protein X3 of SARS-CoV Urbani / Binding of serum 37 to looped/cyclic peptides of protein X3 of SARS-CoV Urbani / Binding of serum 6 to linear peptides of protein X4 of SARS-CoV Urbani / Binding of serum 37 to linear peptides of protein X4 of SARS-CoV Urbani / Binding of serum 37 to looped/cyclic peptides of protein X4 of SARS-CoV Urbani / Binding of serum 6 to linear peptides of protein X5 of SARS-CoV Urbani / Binding of serum 37 to linear peptides of protein X5 of SARS-CoV Urbani / Binding of serum 37 to looped/cyclic peptides of protein X5 of SARS-CoV Urbani / Binding of serum 6 to linear peptides of protein N of SARS-CoV Urbani / Binding of serum 37 to linear peptides of protein N of SARS-CoV Urbani / Binding of serum 6 to linear peptide (PEPSCAN-ELISA) / Binding of serum 1a to looped/cyclic peptides of protein N of SARS-CoV Urbani / Binding of serum 1b to looped/cyclic peptides of protein N of SARS-CoV Urbani / Binding of serum 2 to looped/cyclic peptides of protein N of SARS-CoV Urbani / Binding of serum 6 to looped/cyclic peptides of protein N of SARS-CoV Urbani / Binding of serum 37 to looped/cyclic peptides of protein N of SARS-CoV Urbani / Binding of serum 62 to looped/cyclic peptides of protein N of SARS-CoV Urbani / Binding of serum London to looped/cyclic peptides of protein N of SARS-CoV Urbani / Binding of serum SARS-green to looped/cyclic peptides of protein N of SARS-CoV Urbani: unit not given here
# [2] = tested on: control sera (pooled serum of ten healthy LUMC hospital workers; commercial negative donor pooled serum from the Dutch bloodbank); assay type: binding, human; design: Binding of Control serum LUMC to linear peptides / Binding of Control serum Blood-bank to linear peptides / Binding of Control serum LUMC to looped peptides / Binding of Control Serum Blood-Bank to Looped peptides / Binding of Control serum LUMC to linear peptides of the protein M of SARS-CoV Urbani / Binding of Control serum Blood-bank to linear peptides of the protein M of SARS-CoV Urbani / Binding of Control serum LUMC to looped peptides of the protein M of SARS-CoV Urbani / Binding of Control Serum Blood-Bank to Looped peptides of the protein M of SARS-CoV Urbani: unit not given here
# [3] = tested on: rabbit serum obtained by immunizing a rabbit with the SARS-CoV strain Frankfurt 1; assay type: binding; design: Binding of a rabbit serum to linear peptides / Binding of a rabbit serum to looped peptides / Rabbit serum linear peptides / Rabbit serum looped peptides / Binding of a rabbit serum to linear peptides of protein N of SARS-CoV Urbani (Rabbit serum linear peptides) / Binding of a rabbit serum to looped/cyclic peptides of protein N of SARS-CoV Urbani (Rabbit serum looped peptides): unit not given here
sequence,measurement,setting,value
AWIMLLQFAYSNRNR,Binding of serum 1a to linear peptides of protein M of SARS-CoV Urbani,[1],0.7
same,Binding of serum 1a to looped/cyclic peptides of protein M of SARS-CoV Urbani,[1],0.7
same,Binding of serum 1b to linear peptides of protein M of SARS-CoV Urbani,[1],0.6
same,Binding of serum 1b to looped/cyclic peptides of protein M of SARS-CoV Urbani,[1],0.7
same,Binding of serum 2 to linear peptides of protein M of SARS-CoV Urbani,[1],0.5
same,Binding of serum 2 to looped/cyclic peptides of protein M of SARS-CoV Urbani,[1],0.6
same,Binding of serum 6 to linear peptides of protein M of SARS-CoV Urbani,[1],0.5
same,Binding of serum 6 to looped/cyclic peptides of protein M of SARS-CoV Urbani,[1],1.1
same,Binding of serum 37 to linear peptides of protein M of SARS-CoV Urbani,[1],0.4
same,Binding of serum 37 to looped/cyclic peptides of protein M of SARS-CoV Urbani,[1],0.6
same,Binding of serum 62 to linear peptides of protein M of SARS-CoV Urbani,[1],0.4
same,Binding of serum 62 to looped/cyclic peptides of protein M of SARS-CoV Urbani,[1],0.6
same,Binding of serum London to linear peptides of protein M of SARS-CoV Urbani,[1],0.3
same,Binding of serum London to looped/cyclic peptides of protein M of SARS-CoV Urbani,[1],0.6
same,Binding of serum SARS-green to linear peptides of protein M of SARS-CoV Urbani,[1],0.6
same,Binding of serum SARS-green to looped/cyclic peptides of protein M of SARS-CoV Urbani,[1],0.4
same,Binding of serum SARS-yellow to linear peptides of protein M of SARS-CoV Urbani,[1],0.2
same,Binding of serum SARS-yellow to looped/cyclic peptides of protein M of SARS-CoV Urbani,[1],0.7
same,Binding of Control Serum Blood-Bank to Looped peptides of the protein M of SARS-CoV Urbani,[2],0.7
same,Binding of Control serum Blood-bank to linear peptides of the protein M of SARS-CoV Urbani,[2],0.7
same,Binding of Control serum LUMC to linear peptides of the protein M of SARS-CoV Urbani,[2],0.5
same,Binding of Control serum LUMC to looped peptides of the protein M of SARS-CoV Urbani,[2],0.7
same,Rabbit serum linear peptides,[3],0.3
same,Rabbit serum looped peptides,[3],0.4
ITVSQIQLSLLKVTA,Binding of serum 1a to linear peptides of protein X2,[1],0.6
same,Binding of serum 1a to looped/cyclic peptides of protein X2 of SARS-CoV Urbani,[1],0.5
same,Binding of serum 1b to linear peptides of protein X2,[1],0.5
same,Binding of serum 1b to looped/cyclic peptides of protein X2 of SARS-CoV Urbani,[1],0.5
same,Binding of serum 2 to linear peptides of protein X2,[1],0.4
same,Binding of serum 2 to looped/cyclic peptides of protein X2 of SARS-CoV Urbani,[1],0.4
same,Binding of serum 6 to linear peptides of protein X2,[1],0.5
same,Binding of serum 6 to looped/cyclic peptides of protein X2 of SARS-CoV Urbani,[1],1.4
same,Binding of serum 37 to linear peptides of protein X2,[1],0.6
same,Binding of serum 37 to looped/cyclic peptides of protein X2 of SARS-CoV Urbani,[1],0.5
same,Binding of serum 62 to linear peptides of protein X2,[1],0.4
same,Binding of serum 62 to looped/cyclic peptides of protein X2 of SARS-CoV Urbani,[1],0.5
same,Binding of serum London to linear peptides of protein X2,[1],0.4
same,Binding of serum London to looped/cyclic peptides of protein X2 of SARS-CoV Urbani,[1],1.4
same,Binding of serum SARS-green to linear peptides of protein X2,[1],0.1
same,Binding of serum SARS-green to looped/cyclic peptides of protein X2 of SARS-CoV Urbani,[1],0.3
same,Binding of serum SARS-yellow to linear peptides of protein X2,[1],0.7
same,Binding of serum SARS-yellow to looped/cyclic peptides of protein X2 of SARS-CoV Urbani,[1],0.6
same,Binding of Control Serum Blood-Bank to Looped peptides,[2],0.6
same,Binding of Control serum Blood-bank to linear peptides,[2],0.5
same,Binding of Control serum LUMC to linear peptides,[2],0.6
same,Binding of Control serum LUMC to looped peptides,[2],0.7
same,Binding of a rabbit serum to linear peptides,[3],0.7
same,Binding of a rabbit serum to looped peptides,[3],0.4
LPFHRWHTMVQTCTP,Binding of serum 1a to linear peptides of protein X5 of SARS-CoV Urbani,[1],0.8
same,Binding of serum 1a to looped/cyclic peptides of protein X5 of SARS-CoV Urbani,[1],0.5
same,Binding of serum 1b to linear peptides of protein X5 of SARS-CoV Urbani,[1],0.7
same,Binding of serum 1b to looped/cyclic peptides of protein X5 of SARS-CoV Urbani,[1],0.4
same,Binding of serum 2 to linear peptides of protein X5 of SARS-CoV Urbani,[1],0.9
same,Binding of serum 2 to looped/cyclic peptides of protein X5 of SARS-CoV Urbani,[1],0.5
same,Binding of serum 6 to linear peptides of protein X5 of SARS-CoV Urbani,[1],0.6
same,Binding of serum 6 to looped/cyclic peptides of protein X5 of SARS-CoV Urbani,[1],0.3
same,Binding of serum 37 to linear peptides of protein X5 of SARS-CoV Urbani,[1],0.8
same,Binding of serum 37 to looped/cyclic peptides of protein X5 of SARS-CoV Urbani,[1],0.4
same,Binding of serum 62 to linear peptides of protein X5 of SARS-CoV Urbani,[1],0.8
same,Binding of serum 62 to looped/cyclic peptides of protein X5 of SARS-CoV Urbani,[1],0.3
same,Binding of serum London to linear peptides of protein X5 of SARS-CoV Urbani,[1],0.9
same,Binding of serum London to looped/cyclic peptides of protein X5 of SARS-CoV Urbani,[1],0.2
same,Binding of serum SARS-green to linear peptides of protein X5 of SARS-CoV Urbani,[1],0.6
same,Binding of serum SARS-green to looped/cyclic peptides of protein X5 of SARS-CoV Urbani,[1],0.3
same,Binding of serum SARS-yellow to linear peptides of protein X5 of SARS-CoV Urbani,[1],0.4
same,Binding of serum SARS-yellow to looped/cyclic peptides of protein X5 of SARS-CoV Urbani,[1],0.2
same,Binding of Control Serum Blood-Bank to Looped peptides,[2],0.5
same,Binding of Control serum Blood-bank to linear peptides,[2],0.6
same,Binding of Control serum LUMC to linear peptides,[2],0.5
same,Binding of Control serum LUMC to looped peptides,[2],0.4
same,Rabbit serum linear peptides,[3],0.5
same,Rabbit serum looped peptides,[3],0.3
